Test results: patent publication US9346761B2, “Arginine methyltransferase inhibitors and uses thereof” (Epizyme, Inc., priority 2013, dated 2016)

target: T1, Human CARM1 (PRMT4) (Homo sapiens, UniProt Q86X55); assay: CARM1 biochemical assay (3H-SAM Flashplate, peptide substrate)
T1 construct: Flag-CARM1-His was eluted with 200 ug/ml FLAG peptide in buffer A; made in house; host or cells: HEK 293F cells (BacMam virus, pFastBacMam)
T1 sequence (Q86X55 with tags, fused parts or gaps isoform Q86X55-1): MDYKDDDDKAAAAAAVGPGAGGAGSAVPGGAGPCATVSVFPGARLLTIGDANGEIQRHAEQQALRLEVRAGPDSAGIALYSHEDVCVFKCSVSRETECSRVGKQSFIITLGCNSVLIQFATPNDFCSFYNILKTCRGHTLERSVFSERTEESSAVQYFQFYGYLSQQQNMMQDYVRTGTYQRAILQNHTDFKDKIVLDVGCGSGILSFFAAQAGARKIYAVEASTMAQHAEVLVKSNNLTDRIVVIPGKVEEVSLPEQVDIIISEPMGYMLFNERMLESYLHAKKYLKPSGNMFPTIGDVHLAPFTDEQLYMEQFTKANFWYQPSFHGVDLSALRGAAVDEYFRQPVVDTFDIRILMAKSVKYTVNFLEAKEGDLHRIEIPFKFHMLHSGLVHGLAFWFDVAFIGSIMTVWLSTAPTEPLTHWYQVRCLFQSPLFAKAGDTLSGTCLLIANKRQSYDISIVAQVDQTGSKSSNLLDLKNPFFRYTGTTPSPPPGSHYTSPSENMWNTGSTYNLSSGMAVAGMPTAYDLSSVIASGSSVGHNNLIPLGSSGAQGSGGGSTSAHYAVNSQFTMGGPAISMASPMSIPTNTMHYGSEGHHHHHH
How it was run: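 Methylation of a biotin-tagged H3 residues 16-30 peptide by recombinant CARM1 tracked via 3H-SAM incorporation, read as scintillation counts after streptavidin Flashplate capture. Compound and enzyme sat 30 min at room temperature first; unlabelled SAM at 300 uM final stopped the reaction. IC50 from Hill fits of % inhibition normalised to SAH and DMSO controls.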

SMILES | IC50
COCCn1cc(CN(C)CCN(C)C)c(-c2ccc(F)cc2)n1 [Compound 61] | > 10 µM
CNCCN(C)Cc1c[nH]nc1-c1ccc(OC)c(F)c1 [Compound 52] | 1.01 to 3 µM
CN(CCN)Cc1c[nH]nc1-c1ccc(F)cc1Cl [Compound 89] | 3.01 to 10 µM
CNCCN(C)Cc1c[nH]nc1-c1ccccc1NS(C)(=O)=O [Compound 41] | > 10 µM
CN(CCN)Cc1cnn(CCO)c1-c1ccc(F)cc1 [Compound 65] | 3.01 to 10 µM
CNCCN(C)Cc1cn(CCC(O)CO)nc1-c1ccc(F)cc1 (stereo not shown) [Compound 59] | 3.01 to 10 µM
CCN(CCN)Cc1c[nH]nc1-c1ccc(F)cc1 [Compound 62] | 0.101 to 1 µM
CNCCN(C)Cc1c[nH]nc1-c1cccc(NC(C)=O)c1 [Compound 42] | 1.01 to 3 µM
CN(CCN)Cc1c[nH]nc1-c1ccc(C(F)(F)F)cc1C(F)(F)F [Compound 85] | > 10 µM
CNCCN(C)Cc1c[nH]nc1-c1cccc2ccccc12 [Compound 57] | 1.01 to 3 µM
CN(CCN)Cc1c[nH]nc1-c1cccc(F)c1 [Compound 71] | 0.101 to 1 µM
CNCCN(C)Cc1c[nH]nc1-c1ccc2ccccc2c1 [Compound 58] | 0.101 to 1 µM
CN(CCN)Cc1cn(CCO)nc1-c1ccc(F)cc1 [Compound 66] | 3.01 to 10 µM
CN(CCN)Cc1cnn(CC2COC2)c1-c1ccc(F)cc1 [Compound 80] | > 10 µM
COCCn1ncc(CN(C)CCN(C)C)c1-c1ccc(F)cc1 [Compound 64] | > 10 µM
CNCCN(C)Cc1c[nH]nc1-c1ccccc1Oc1ccccc1 [Compound 36] | > 10 µM
CN(CCN)Cc1c[nH]nc1-c1ccc(Cl)cc1Cl [Compound 86] | 3.01 to 10 µM
CN(CCN)Cc1cnn(C)c1-c1ccc(F)cc1 [Compound 4] | 0.101 to 1 µM
CN(CCN)Cc1cn(CC(O)CO)nc1-c1ccc(F)cc1 (stereo not shown) [Compound 76] | > 10 µM
CN(CCN)Cc1c[nH]nc1-c1ccccc1 [Compound 73] | 1.01 to 3 µM
CN(CCN)Cc1nn(C)cc1-c1ccc(C#N)cc1 [Compound 83] | 1.01 to 3 µM
NCCN(Cc1c[nH]nc1-c1ccc(F)cc1)C1CC1 [Compound 78] | > 10 µM

SMILES | IC50
CNCCN(C)Cc1c[nH]nc1-c1cc(Cl)ccc1OC [Compound 53] | > 10 µM
CNCCN(C)Cc1c[nH]nc1-c1ccc(F)cc1F [Compound 49] | 3.01 to 10 µM
CN(CCN)Cc1c[nH]nc1-c1ccc(C#N)cc1 [Compound 68] | 0.101 to 1 µM
Cc1ccc(Cl)c(-c2n[nH]cc2CN(C)CCN)c1 [Compound 91] | > 10 µM
CNCCN(C)Cc1c[nH]nc1-c1cccc(OC)c1OC [Compound 54] | > 10 µM
CCNCCN(C)Cc1c[nH]nc1-c1ccc(F)cc1 [Compound 60] | > 10 µM
CCN(CCNC)Cc1c[nH]nc1-c1ccc(F)cc1 [Compound 9] | 1.01 to 3 µM
CNCCN(C)Cc1cnn(CC2CCOCC2)c1-c1ccc(F)cc1 [Compound 12] | 3.01 to 10 µM
CN(CCN)Cc1c[nH]nc1-c1ccccc1F [Compound 72] | 3.01 to 10 µM
CNCCN(C)Cc1c[nH]nc1-c1ccc(-c2ccccc2)cc1 [Compound 47] | < 0.1 µM
CNCCN(C)Cc1c[nH]nc1-c1c(OC)cccc1OC [Compound 56] | > 10 µM
CNCCN(C)Cc1cnn(C)c1-c1ccc(F)cc1 [Compound 10] | 1.01 to 3 µM
CN(CCN)Cc1n[nH]cc1-c1ccc(F)cc1 [Compound 69] | 3.01 to 10 µM
CNCCN(C)Cc1c[nH]nc1-c1ccccc1O [Compound 35] | > 10 µM
CN(CCN)Cc1cnn(C2COC2)c1-c1ccc(F)cc1 [Compound 81] | 1.01 to 3 µM
CN(CCN)Cc1c[nH]nc1-c1ccc(C(C)(C)C)cc1 [Compound 74] | 3.01 to 10 µM
CNCCN(C)Cc1c[nH]nc1-c1ccc(OC)cc1OC [Compound 55] | 3.01 to 10 µM
CNCCN(C)Cc1c[nH]nc1-c1cccc(C(C)=O)c1 [Compound 44] | 1.01 to 3 µM
CN(CCN)Cc1c(-c2ccc(C#N)cc2)cnn1C [Compound 84] | > 10 µM
CN(CCN)Cc1cn(CC2COC2)nc1-c1ccc(F)cc1 [Compound 79] | > 10 µM
CNCCN(C)Cc1c[nH]nc1-c1ccccc1F [Compound 48] | 3.01 to 10 µM
CN(CCN)Cc1cn(C2COC2)nc1-c1ccc(F)cc1 [Compound 77] | 3.01 to 10 µM

SMILES | IC50
CNCCN(C)Cc1cn(CC2CCOCC2)nc1-c1ccc(F)cc1 [Compound 11] | > 10 µM
COc1ccc(-c2n[nH]cc2CN(C)CCN)c(OC)c1 [Compound 87] | 3.01 to 10 µM
CC(C)N(CCN)Cc1c[nH]nc1-c1ccc(F)cc1 [Compound 75] | > 10 µM
Cc1ccc(-c2n[nH]cc2CN(C)CCN)c(Cl)c1 [Compound 90] | 3.01 to 10 µM
CNCCN(C)Cc1c[nH]nc1-c1ccc(C(=O)c2ccccc2)cc1 [Compound 45] | < 0.1 µM
CN(CCN)Cc1c[nH]nc1-c1ccc(OC(F)(F)F)cc1 [Compound 93] | 1.01 to 3 µM
CNCCN(C)Cc1c[nH]nc1-c1ccc(CC#N)cc1 [Compound 34] | 1.01 to 3 µM
CC(C)Oc1ccc(-c2n[nH]cc2CN(C)CCN)cc1 [Compound 67] | 0.101 to 1 µM
Cc1ccc(-c2n[nH]cc2CN(C)CCN)c(C)c1 [Compound 88] | 3.01 to 10 µM
CNCCN(C)Cc1c[nH]nc1-c1ccc(F)c(F)c1 [Compound 51] | 0.101 to 1 µM
CNCCN(C)Cc1c[nH]nc1-c1cc(F)ccc1F [Compound 50] | 3.01 to 10 µM
CN(CCN)Cc1c[nH]nc1-c1cccc(C#N)c1 [Compound 70] | 3.01 to 10 µM
CCCN(CCN)Cc1c[nH]nc1-c1ccc(F)cc1 [Compound 63] | > 10 µM
CNCCN(C)Cc1c[nH]nc1-c1cccc(N)c1 [Compound 32] | 1.01 to 3 µM
CNCCN(C)Cc1c[nH]nc1-c1cccc(OC(F)(F)F)c1 [Compound 39] | 1.01 to 3 µM
CN(CCN)Cc1c[nH]nc1-c1ccc(OC(F)F)cc1 [Compound 94] | 0.101 to 1 µM
CN(CCN)Cc1c[nH]nc1-c1ccc(N2CCNCC2)cc1 [Compound 82] | 3.01 to 10 µM
CN(CCN)Cc1c[nH]nc1-c1ccc(C(F)(F)F)cc1 [Compound 92] | 0.101 to 1 µM
CNCCN(C)Cc1c[nH]nc1-c1ccccc1-c1ccccc1 [Compound 46] | > 10 µM
CN(CCN)Cc1cn[nH]c1-c1ccc(F)cc1 [Compound 1] | 1.01 to 3 µM
